Measured values reported in US9670221B2, “Furopyridines as bromodomain inhibitors” (GlaxoSmithKline Intellectual Property (No.2) Limited, priority 2013, dated 2017).
Counter-ions that a name gives are not always drawn.

target: T1, BRD4 BD1 (Homo sapiens, UniProt O60885, Y390A); assay: TR-FRET binding assay, BRD4 BD1 (mutant protein); settings: BRD4 (1-477) mutant, 10 nM protein, read-out: pIC50 in the BRD4 BD1 assay (converted)
T1 construct: BRD4 (1-477) (Y97A) and (Y390A); made in house; host or cells: E. coli (pET15b vector)
Method: Time Resolved Fluorescence Resonance Energy Transfer (TR-FRET) Assay
Binding was assessed using a time resolved fluorescent resonance energy transfer binding assay. This utilises a 6 His purification tag at the N-terminal of the proteins as an epitope for an anti-6 His antibody labeled with Europium chelate (PerkinElmer AD0111) allowing binding of the Europium to the proteins which acts as the donor fluorophore. A small molecule, high affinity binder of the bromodomains BRD2, BRD3, BRD4 and BRDT has been labeled with Alexa Fluor647 (Reference Compound X) and this acts as the acceptor in the FRET pair.
Assay Principle: In the absence of a competing compound, excitation of the Europium causes the donor to emit at λ618 nm which excites the Alexa labelled bromodomain binding compound leading to an increased energy transfer that is measurable at λ647 […]. In the presence of a sufficient concentration of a compound that can bind these proteins, the interaction is disrupted leading to a quantifiable drop in fluorescent resonance energy transfer.
The binding of the compounds of formula (I) to Bromodomains BRD2, BRD3, BRD4 and BRDT was assessed using mutated proteins to detect differential binding to either Binding Domain 1 (BD1) or Binding Domain 2 (BD2) on the bromodomain. These single residue mutations in the acetyl lysine binding pocket greatly lower the affinity of the fluoroligand (Reference Compound X) for the mutated domain (>1000 fold selective for the non-mutated domain). Therefore in the final assay conditions, binding of the fluoroligand to the mutated domain cannot be detected and subsequently the assay is suitable to determine the binding of compounds to the single non-mutated bromodomain.
Protein production: Recombinant Human Bromodomains [(BRD2 (1-473) (Y113A) and (Y386A), BRD3 (1-435) (Y73A) and (Y348A) BRD4 (1-477) (Y97A) and (Y390A) and BRDT (1-397) (Y66A) and (Y309A)] were expressed in E. coli cells (in pET15b vector for BRD2/3/4 and in pET28a vector for BRDT) with a 6-His tag at the N-terminal. The His-tagged Bromodomain pellet was resuspended in 50 mM HEPES (pH7.5), 300 mM NaCl, 10 mM imidazole & 1 μl/mL protease inhibitor cocktail and extracted from the E. coli cells using sonication and purified using a nickel sepharose high performance column, the proteins were washed and then eluted with a linear gradient of 0-500 mM imidazole with buffer 50 mM HEPES (pH7.5), 150 mM NaCl, 500 mM imidazole, over 20 column volumes. Final purification was completed by Superdex 200 prep grade size exclusion column. Purified protein was stored at −80° C. in 20 mM HEPES pH 7.5 and 100 mM NaCl. Protein identity was confirmed by peptide mass fingerprinting and predicted molecular weight confirmed by mass spectrometry.
Protocol for Bromodomain BRD2, 3, 4 and T, BD1^+BD2 mutant assays: All assay components were dissolved in buffer composition of 50 mM HEPES pH7.4, 50 mM NaCl, 5% Glycerol, 1 mM DTT and 1 mM CHAPS. The final concentration of bromodomain proteins were 10 nM and the Alexa Fluor647 ligand was at Kd. These components were premixed and 5 μl of this reaction mixture was added to all wells containing 50 nl of various concentrations of test compound or DMSO vehicle (0.5% DMSO final) in Greiner 384 well black low volume microtitre plates and incubated in dark for 30 minutes at room temperature. 5 μl of detection mixture containing 1.5 nM final concentration anti-6His Europium chelate was added to all wells and a further dark incubation of at least 30 minutes was performed. Plates were then read on the Envision platereader, (λex=317 nm, donor λem=615 nm; acceptor λem=665 nm; Dichroic LANCE dual). Time resolved fluorescent intensity measurements were made at both emission wavelengths and the ratio of acceptor/donor was calculated and used for data analysis. All data was normalized to the mean of 16 high (inhibitor control—Example 11 of WO 2011/054846A1) and 16 low (DMSO) control wells on each plate. […]

Row | Structure (SMILES) | IC50 [nM]
1 | C[C@@H]1CN(S(C)(=O)=O)CCN1Cc1cc2c(=O)n(C)cc(-c3ncccc3OCC3CC3)c2o1 [Example 44, (R)-7-(3-(cyclopropylmethoxy)pyridin-2-yl)-5-methyl-2-((2-methyl-4-(methylsulfonyl)piperazin-1-yl)methyl)furo[3,2-c]pyridin-4(5H)-one] | ≤ 100
2 | CN1CCCN(Cc2cc3c(=O)n(C)cc(-c4ccncc4OCC4CC4)c3o2)CC1 [Example 56, 7-(3-(cyclopropylmethoxy)pyridin-4-yl)-5-methyl-2-((4-methyl-1,4-diazepan-1-yl)methyl)furo[3,2-c]pyridin-4(5H)-one hydrochloride] | ≤ 100
3 | CC(Oc1cncc(-c2cn(C)c(=O)c3cc(CN4CCN(S(C)(=O)=O)CC4)oc23)c1)c1ccccc1 (stereo not shown) [Example 12, 5-methyl-2-((4-(methylsulfonyl)piperazin-1-yl)methyl)-7-(5-(1-phenylethoxy)pyridin-3-yl)furo[3,2-c]pyridin-4(5H)-one] | ≤ 100
4 | Cn1cc(-c2ccc(C(=O)O)cc2OCC2CC2)c2oc(CN3CCN(S(C)(=O)=O)CC3)cc2c1=O [Example 67, 3-(cyclopropylmethoxy)-4-(5-methyl-2-((4-(methylsulfonyl)piperazin-1-yl)methyl)-4-oxo-4,5-dihydrofuro[3,2-c]pyridin-7-yl)benzoic acid] | ≤ 10
5 | Cn1cc(-c2ccncc2OCC2CC2)c2oc(CN3CCNC(=O)C3)cc2c1=O [Example 71, 7-(3-(cyclopropylmethoxy)pyridin-4-yl)-5-methyl-2-((3-oxopiperazin-1-yl)methyl)furo[3,2-c]pyridin-4(5H)-one hydrochloride] | ≤ 100
6 | Cn1cc(-c2cccc(NCc3ccccc3)c2)c2oc(CN3CCN(S(C)(=O)=O)CC3)cc2c1=O [Example 4, 7-(3-(benzylamino)phenyl)-5-methyl-2-((4-(methylsulfonyl)piperazin-1-yl)methyl)furo[3,2-c]pyridin-4(5H)-one] | ≤ 100
7 | Cn1cc(-c2ccncc2OCC2CC2)c2oc(CN3CCN(S(C)(=O)=O)CC3)cc2c1=O [Example 31, 7-(3-(cyclopropylmethoxy)pyridin-4-yl)-5-methyl-2-((4-(methylsulfonyl)piperazin-1-yl)methyl)furo[3,2-c]pyridin-4(5H)-one] | ≤ 100
8 | COCCOc1cnccc1-c1cn(C)c(=O)c2cc(CN3CCN(S(C)(=O)=O)C[C@H]3C)oc12 [Example 66, (R)-7-(3-(2-methoxyethoxy)pyridin-4-yl)-5-methyl-2-((2-methyl-4-(methylsulfonyl)piperazin-1-yl)methyl)furo[3,2-c]pyridin-4(5H)-one] | ≤ 100
9 | COCCOc1cc(-c2cn(C)c(=O)c3cc(CN4CCN(S(C)(=O)=O)C[C@H]4C)oc23)ccn1 [Example 26, (R)-7-(2-(2-methoxyethoxy)pyridin-4-yl)-5-methyl-2-((2-methyl-4-(methylsulfonyl)piperazin-1-yl)methyl)furo[3,2-c]pyridin-4(5H)-one] | ≤ 100
10 | Cl.[2H]C([2H])([2H])n1cc(-c2ccnc(NC(C)=O)c2)c2oc(CN3CCN(S(C)(=O)=O)C[C@H]3C)cc2c1=O [Example 62, (R)-N-(4-(5-(^2H3)methyl-2-((2-methyl-4-(methylsulfonyl)piperazin-1-yl)methyl)-4-oxo-4,5-dihydrofuro[3,2-c]pyridin-7-yl)pyridin-2-yl)acetamide] | ≤ 100
11 | CC(=O)Nc1cc(-c2cn(C)c(=O)c3cc(CN4CCN(S(C)(=O)=O)C[C@H]4C)oc23)ccn1 [Example 2, (R)—N-(4-(5-methyl-2-((2-methyl-4-(methylsulfonyl)piperazin-1-yl)methyl)-4-oxo-4,5-dihydrofuro[3,2-c]pyridin-7-yl)pyridin-2-yl)acetamide] | ≤ 100
12 | CC(=O)Nc1cc(-c2cn(C)c(=O)c3cc(CN4CCC(=O)NCC4C)oc23)ccn1 (stereo not shown) [Example 100, N-(4-(5-methyl-2-((2-methyl-5-oxo-1,4-diazepan-1-yl)methyl)-4-oxo-4,5-dihydrofuro[3,2-c]pyridin-7-yl)pyridin-2-yl)acetamide] | ≤ 100
13 | CC(=O)N(C)c1cc(-c2cn(C)c(=O)c3cc(CN4CCN(S(C)(=O)=O)C[C@H]4C)oc23)ccn1 [Example 30, (R)—N-methyl-N-(4-(5-methyl-2-((2-methyl-4-(methylsulfonyl)piperazin-1-yl)methyl)-4-oxo-4,5-dihydrofuro[3,2-c]pyridin-7-yl)pyridin-2-yl)acetamide] | ≤ 100
14 | C[C@@H]1CN(S(C)(=O)=O)CCN1Cc1cc2c(=O)n(C)cc(-c3ccnc(OCC4CC4)c3)c2o1 [Example 23, (R)-7-(2-(cyclopropylmethoxy)pyridin-4-yl)-5-methyl-2-((2-methyl-4-(methylsulfonyl)piperazin-1-yl)methyl)furo[3,2-c]pyridin-4(5H)-one] | ≤ 100
15 | CC(c1cc2c(=O)n(C)cc(-c3ccnc(OCC4CCOCC4)c3)c2o1)N1CCN(S(C)(=O)=O)CC1 (single isomer, unassigned) [Example 21a, 5-methyl-2-(1-(4-(methylsulfonyl)piperazin-1-yl)ethyl)-7-(2-((tetrahydro-2H-pyran-4-yl)methoxy)pyridin-4-yl)furo[3,2-c]pyridin-4(5H)-one] | ≤ 100
16 | C[C@@H]1CN(S(C)(=O)=O)CCN1Cc1cc2c(=O)n(C)cc(-c3ccncc3OC[C@@H]3CCO3)c2o1 [Example 43, 5-methyl-2-(((R)-2-methyl-4-(methylsulfonyl)piperazin-1-yl)methyl)-7-(3-((S)-oxetan-2-ylmethoxy)pyridin-4-yl)furo[3,2-c]pyridin-4(5H)-one] | ≤ 100
17 | CC(=O)Nc1cc(-c2cn(C)c(=O)c3cc(C(C)(C)N4CCN(S(C)(=O)=O)CC4)oc23)ccn1 [Example 65, N-(4-(5-methyl-2-(2-(4-(methylsulfonyl)piperazin-1-yl)propan-2-yl)-4-oxo-4,5-dihydrofuro[3,2-c]pyridin-7-yl)pyridin-2-yl)acetamide] | ≤ 100
18 | Cn1cc(-c2cccc(OCc3ccccc3)c2)c2oc(CN3CCN(S(C)(=O)=O)CC3)cc2c1=O [Example 3, 7-(3-(benzyloxy)phenyl)-5-methyl-2-((4-(methylsulfonyl)piperazin-1-yl)methyl)furo[3,2-c]pyridin-4(5H)-one] | ≤ 100
19 | CC(=O)Nc1cncc(-c2cn(C)c(=O)c3cc(CN4CCN(S(C)(=O)=O)C[C@H]4C)oc23)c1 [Example 38, (R)—N-(5-(5-methyl-2-((2-methyl-4-(methylsulfonyl)piperazin-1-yl)methyl)-4-oxo-4,5-dihydrofuro[3,2-c]pyridin-7-yl)pyridin-3-yl)acetamide] | ≤ 100
20 | CC(=O)Nc1cc(-c2cn(C)c(=O)c3cc(CN4CC(C)N(S(C)(=O)=O)CC4C)oc23)ccn1 (stereo not shown) [Example 96, N-(4-(2-((2,5-dimethyl-4-(methylsulfonyl)piperazin-1-yl)methyl)-5-methyl-4-oxo-4,5-dihydrofuro[3,2-c]pyridin-7-yl)pyridin-2-yl)acetamide] | ≤ 100
21 | COc1ccc(-c2cn(C)c(=O)c3cc(CN4CCN(S(C)(=O)=O)C[C@H]4C)oc23)cc1OC [Example 10, (R)-7-(3,4-dimethoxyphenyl)-5-methyl-2-((2-methyl-4-(methylsulfonyl)piperazin-1-yl)methyl)furo[3,2-c]pyridin-4(5H)-one] | ≤ 100
22 | CC(C)Oc1cnccc1-c1cn(C)c(=O)c2cc(CN3CCN(S(C)(=O)=O)C[C@H]3C)oc12 [Example 58, (R)-7-(3-isopropoxypyridin-4-yl)-5-methyl-2-((2-methyl-4-(methylsulfonyl)piperazin-1-yl)methyl)furo[3,2-c]pyridin-4(5H)-one] | ≤ 100
